# Test results taken from patent US12606816B2, “Inhibitory T cell receptor peptides and discovery methods” (JANUX THERAPEUTICS, INC., priority 2018, dated 2026).
# Tested on: Mage-A3 sTCR
# Assay: kdis (1/s)
# Conditions: not given
# Source text: Table printed on a drawing sheet, FIG. 4B
# Head of the field: kdis (1/s)
row,Substance,kdis [s⁻¹]
1,VSCKDVYDEAFCW [Inhibitory peptide 1],0.0282

# Target: HIV pMHC binding to anti-HIV TCR
# Assay: not given
# Conditions: read-out: ELISA | IC50 | uM
row,Substance,IC50 [µM]
1,GGAFCVDTKPGLVCFEGGGGS[PEG4]Lys(biotin)- NH2,112

# Tested on: gp100 TCR
# Assay: not given
# Conditions: read-out: ELISA | EC50 | uM
row,Substance,EC50 [µM]
1,GGCHWEHVWGAGSFFCGGGGS[PEG4]Lys(biotin)-NH2,1.26
2,GGDICQWVRSMTECSWGGGGS[PEG4]Lys(biotin)-NH2,0.17
3,GGFCRYVRYEFWDLCMGGGGS[PEG4]Lys(biotin)-NH2,0.54
4,GGHCYDTHSFPMYVCLGGGGS[PEG4]Lys(biotin)-NH2,2.58
5,GGICYDYMSGYDVVCMGGGGS[PEG4]Lys(biotin)-NH2,0.11
6,GGLCRAVEDMWVTSCMGGGGS[PEG4]Lys(biotin)-NH2,4.04
7,GGYCPLSYSQYDSPCYGGGGS[PEG4]Lys(biotin)-NH2,0.1
8,GGYCYYDIDLDQFLCNGGGGS[PEG4]Lys(biotin)-NH2,0.23
9,GGYDCNYDPSSHTCFYGGGGS[PEG4]Lys(biotin)-NH2,0.12

# Tested on: MAGE-A3 TCR
# Assay: not given
# Conditions: read-out: ELISA | EC50 | uM
row,Substance,EC50 [µM]
1,GGCSWIFDGLRYFSKCGGGGS[PEG4]Lys(biotin)- NH2,0.15
2,GGESCQSVYDSSFCYDGGGGS[PEG4]Lys(biotin)- NH2,0.1
3,GGHCFVSPASGEWWCVGGGGS[PEG4]Lys(biotin)- NH2,0.08
4,GGNACEMTYDHTFCDPGGGGS[PEG4]Lys(biotin)- NH2,0.17
5,GGNQCWEVYDQEFCSLGGGGS[PEG4]Lys(biotin)- NH2,0.05
6,GGNSCSLVYDKAFCLFGGGGS[PEG4]Lys(biotin)- NH2,0.43
7,GGRICEEVYDWIFCESGGGGS[PEG4]Lys(biotin)- NH2,0.31
8,GGRRCVDVYDNAFCLIGGGGS[PEG4]Lys(biotin)- NH2,0.25
9,GGSACSRIYDFAFCHTGGGGS[PEG4]Lys(biotin)- NH2,0.33
10,GGSLCSLVYDQDFCESGGGGS[PEG4]Lys(biotin)- NH2,0.16
11,GGTFCYFDHGLVNCQWGGGGS[PEG4]Lys(biotin)- NH2,0.5
12,GGTSCAQIYDFEFCYSGGGGS[PEG4]Lys(biotin)- NH2,0.17
13,GGVSCKDVYDEAFCWTGGGGS[PEG4]Lys(biotin)- NH2,0.01
14,LVWGCIWDDMCSGGGGS[PEG4]Lys(biotin)-NH2,0.1
15,VRTWFEKFPELVGGGGS[PEG4]Lys(biotin)-NH2,0.67

# Tested on: HIV TCR
# Assay: not given
# Conditions: read-out: ELISA | EC50 | uM
row,Substance,EC50 [µM]
1,GGAFCVDTKPGLVCFEGGGGS[PEG4]Lys(biotin)- NH2,0.26
2,GGATCHLDNVYFLCDIGGGGS[PEG4]Lys(biotin)- NH2,0.34
3,GGFTCVDGQVYYLCDSGGGGS[PEG4]Lys(biotin)- NH2,0.69
4,GGGTCFHGNTYFLCEDGGGGS[PEG4]Lys(biotin)- NH2,0.29
5,GGIECYPGFWALDCLYGGGGS[PEG4]Lys(biotin)- NH2,0.43
6,GGLTCSSQNIYYLCSDGGGGS[PEG4]Lys(biotin)- NH2,0.4
7,GGLVCNDGNIWWLCEDGGGGS[PEG4]Lys(biotin)- NH2,0.88
8,GGLVCNDGVVFWLCDSGGGGS[PEG4]Lys(biotin)- NH2,0.81
9,GGMLCNEGYWALSCFLGGGGS[PEG4]Lys(biotin)- NH2,0.69
10,GGQLCPEGYYALMCTDGGGGS[PEG4]Lys(biotin)- NH2,0.15
11,GGQTCIADNVYYLCPEGGGGS[PEG4]Lys(biotin)- NH2,0.82
12,GGSNCYSLEPWIYCDTGGGGS[PEG4]Lys(biotin)- NH2,0.5
13,GGTTCLEGGVYFLCADGGGGS[PEG4]Lys(biotin)- NH2,0.74
14,GGVICTADGVYWLCDLGGGGS[PEG4]Lys(biotin)- NH2,1.29
15,GGVTCNDGKIFYLCSDGGGGS[PEG4]Lys(biotin)- NH2,0.63
16,GGVTCSLGNVFYLCHDGGGGS[PEG4]Lys(biotin)- NH2,0.39

# Tested on: MAGE-A3 TCR / MAGE-A3 pMHC
# Assay: not given
# Conditions: read-out: ELISA | IC50 | uM
row,Substance,IC50 [µM]
1,GGHCFVSPASGEWWCVGGGGS[PEG4]Lys(biotin)- NH2,> 100
2,GGVSCKDVYDEAFCWTGGGGS[PEG4]Lys(biotin)- NH2,0.6
3,LVWGCIWDDMCSGGGGS[PEG4]Lys(biotin)-NH2,> 100
